Where two headings read alike, the source gives them in different places.
Columns and labels:
[1] = 4-week toxicity study in mice followed by 2 weeks of recovery; assay type: in vivo, mouse; settings: both sexes, CD1, mouse, in vivo, po
Method: (§1) This study was conducted to evaluate the potential toxicity of ACI-3024 when given daily by oral gavage to CD1 mice for 4 weeks, followed by a 2-week recovery period. Doses of 100, 300 and 1000 mg/kg were administered by p.o. to 10 animals/sex/group daily. The control animals were administered vehicle. The dose volume was 10 mL/kg for all groups.
(§2) Clinical signs, body weights, food consumption, ophthalmology, clinical pathology were evaluated. For each sex/group, a complete necropsy was conducted on 10 animals at the end of the dosing period and on 6 (only control and high dose groups) surviving animals at end of the recovery period.

CD1 mice = assay: as above; assay type: in vivo, mouse; settings: 1000 mg/kg/day p.o., Day 9
Method: as §1, §2

Gottingen mini-pig = assay: in vivo; settings: minipig
Method: (§3) This study was conducted to evaluate the potential toxicity of ACI-3024 in a non-rodent species when given daily to Gottingen mini-pig for 4 weeks, followed by a 2-week recovery period.
(§4) Doses tested, 50, 150 and 450 mg/kg were given by p.o. to 3 animals/sex/group daily. The control animals were administered vehicle. The dose volume was 5 mL/kg for all groups.
as §2, with “electrocardiography, ophthalmology and” for “ophthalmology,”, “3” for “10”, “2” for “6”

in vivo = assay: in vivo; set-up: species or system mini-pig; settings: both sexes, Gottingen, minipig, po
Method: as §3, §4
as §2, with “electrocardiography, ophthalmology and” for “ophthalmology,”, “3” for “10”, “2” for “6”

healthy subjects = assay: First-in-human study, single ascending dose (SAD) part: safety and tolerability; assay type: in vivo; settings: for number of AEs: healthy subjects
Excerpt: A First-In-Human, Randomized, Placebo-Controlled, Double-Blind, SAD/MAD Study to Assess the Safety, Tolerability, Pharmacokinetics, and Pharmacodynamics of ACI-3024
The objective of the study is to assess the safety, tolerability, pharmacokinetics (PK), and pharmacodynamics (PD) of single ascending doses (SAD) and multiple ascending doses (MAD) of ACI-3024 in a first-in-human, randomized, placebo-controlled, double-blind, sequential SAD/MAD study with open-label food effect and pharmacodynamic assessment arms. The study comprises different parts to be conducted in Healthy Volunteers: • 1) one Single Ascending Dose (SAD) part in which several cohorts are being investigated with single ascending doses of ACI-3024. The food effect is also explored in this part. • 2) one Multiple Ascending Dose (MAD) part in which several cohorts are being investigated with multiple ascending doses of ACI-3024. Each study part is assessing the safety, tolerability, pharmacokinetics and pharmacodynamics of ACI-3024.
This part comprised a single dose, sequential group design. Overall, 40 healthy non-elderly male subjects were enrolled in 5 cohorts (Cohorts S1 to S5), with each cohort consisting of 8 subjects.
No Japanese subjects were enrolled in Cohort S1. For Cohorts S2 through S5, 4 Japanese subjects and 4 non Japanese subjects were enrolled.
(§5) In each of Cohorts S1 to S5, 6 subjects (including 3 Japanese subjects in Cohorts S2 through S5) received ACI-3024 and 2 subjects (including 1 Japanese subject in Cohorts S2 through S5) received placebo. All doses were administered in the fasting state in accordance with a randomization schedule on the morning of Day 1, except for subjects in the food-effect cohort (Cohort S4), who were dosed 30 minutes after starting a high-fat breakfast in Treatment Period 2 only. Each subject received only a single dose of ACI-3024 or placebo during the study, except for subjects in the food effect cohort, who received a single dose of ACI-3024 or placebo in the fasting state followed by a single dose of ACI-3024 in the fed state. Thus, subjects in Cohort S4 received either 2 identical doses of ACI-3024 (6 subjects) or 1 dose of placebo and 1 dose of ACI-3024 (2 subjects). Six subjects of Cohort S4 received 750 mg dose of ACI-3024 and 2 subjects received placebo. After a period of wash-up all 8 subjects of Cohort S4 received a fat-breakfast and a 750 mg dose of ACI-3024.
The total duration of study participation for each subject (from Screening through Follow-up visit) was approximately 37 days, except for subjects in the food-effect cohort (Cohort S4), for whom the total duration was up to approximately 44 days.

[2] = Pharmacokinetics in SAD and MAD studies (plasma, urine); assay type: in vivo
Method: Secondary Objectives: • To assess the PK of ACI-3024 in plasma, urine, and cerebrospinal fluid (CSF). • To compare the plasma and urine PK parameters of ACI-3024 following single oral doses in the fed and fasting states.
as §5
Cohorts MAD-HV1 to MAD-HV3 comprised 10 elderly non-Japanese male or female subjects, 8 were treated with ACI-3024 and 2 were being given placebo. Cohort MAD-HV4 comprised 5 non-elderly Japanese subjects (4 treated with ACI-3024 and 1 given placebo) and 5 […] (4 treated with ACI-3024 and 1 given placebo). Only subjects from MAD HV3 cohort underwent CSF samplings to explore the CSF inflammatory markers, CSF PK, and CSF PD of ACI-3024. For all subjects, dosing was on […], inclusive, and a final single dose administration occurred on […]. Dose in cohort MAD HV1 was 500 mg of ACI-3024 or placebo, QD, fasted. Dose in cohorts MAD HV2 and MAD HV4 was 500 mg of ACI-3024 or placebo, BID (“bis in die” ie., twice a day), fed. Dose in cohort MAD HV3 was 1400 mg of ACI-3024 or placebo, QD (“quaque die” (once a day), fed.

[3] = statistical assessment, healthy volunteers

Fc1ccc2c3c([nH]c2c1)CCN(c1ccc2oc(N4CCOCC4)nc2c1)C3 [ACI-3024]
NOAEL at 4 weeks [1]: 300 mg/kg/day | mortality / premature euthanasia (CD1 mice): only one female animal was prematurely euthanized | body weight gain (Gottingen mini-pig): minimal test item-related reduction | NOAEL at 4 weeks (in vivo): 450 mg/kg | SAEs or AEs leading to discontinuation (healthy subjects; SAD cohorts, 25 to 1500 mg): no SAEs or AEs leading to discontinuation from the study | vital signs, ECG values, physical or neurological examinations (healthy subjects; SAD cohorts, 25 to 1500 mg): no clinically significant observations | severity of AEs (healthy subjects; SAD cohorts, 25 to 1500 mg (all AEs of the part, placebo included)): mild | overall safety and tolerability (healthy subjects; SAD study, up to the highest administered dose of 1500 mg): safe and well tolerated | number of AEs (healthy subjects; single oral dose 25 mg): 2 | number of AEs (healthy subjects; single oral dose 100 mg): 0 | number of AEs (healthy subjects; single oral dose 300 mg): 3 | number of AEs (healthy subjects; single oral dose 750 mg (fed and fasted states)): 6 | number of AEs (healthy subjects; single oral dose 1500 mg): 2 | Tmax ([2]; both sexes, human, plasma, oral, fasting state, single or multiple doses, read-out: median time of maximum observed plasma concentration (Tmax)): 1.25 to 2.5 h | half-life ([2]; both sexes, human, plasma, oral, following 14 days of multiple dosing, when calculable, read-out: geometric mean t1/2): 47.5 to 101 h | food effect on rate of absorption ([2]; fed vs fasting state): reduced the rate of absorption | food effect: increase of overall exposure ([2]; fed vs fasting state): approximately 3 fold | excretion in urine ([2]; healthy volunteers): Only a small amount | half-life ([2]; human, plasma, oral, humans, read-out: plasma half-life): > 24 h | half-life ([2]; male, human, plasma, oral, following single dose administration, read-out: geometric mean t1/2): 27.7 to 60.5 h | accumulation ([2]; multiple dosing, QD or BID regimen): evidence of accumulation | dose proportionality of AUC0-tlast and AUC0-∞ [2, 3]: dose-proportional increase | dose proportionality of Cmax [2, 3]: subproportional increase
